Experimental data taken from PubChem BioAssay (NCI).
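These data come from cells grown in 96-well plates and exposed to compound for 48 hours at five concentrations. Definition used: TGI = concentration required for complete inhibition of growth.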

Experiments:
Assay in all cases: NCI anticancer screen, dose series, 48 h
[1] = system: SNB-19 CNS
[2] = system: MDA-MB-435
[3] = system: HL-60(TB) leukemia
[4] = system: ACHN renal
[5] = system: CAKI-1 renal
[6] = system: HCT-116 colon
[7] = system: MALME-3M melanoma
[8] = system: HCC-2998 colon
[9] = system: SF-295 CNS
[10] = system: UO-31 renal
[11] = system: SK-MEL-5 melanoma
[12] = system: NCI-H226 lung
[13] = system: MOLT-4 leukemia
[14] = system: RXF 393 renal
[15] = system: HOP-92 NSCLC
[16] = system: SF-539 CNS
[17] = system: OVCAR-8 ovarian
[18] = system: BT-549 breast
[19] = system: SW-620 colon
[20] = system: U251 CNS
[21] = system: DU-145 prostate
[22] = system: OVCAR-5 ovarian
[23] = system: COLO 205 colon
[24] = system: SK-MEL-2 melanoma
[25] = system: EKVX NSCLC
[26] = system: MDA-MB-231 breast
[27] = system: NCI/ADR-RES ovarian
[28] = system: K-562 leukemia
[29] = system: CCRF-CEM leukemia
[30] = system: UACC-62 melanoma
[31] = system: HOP-62 NSCLC
[32] = system: NCI-H23 lung
[33] = system: OVCAR-4 ovarian
[34] = system: HT29 colon
[35] = system: A498 renal
[36] = system: HCT-15 colon
[37] = system: IGROV1 ovarian
[38] = system: HS 578T breast
[39] = system: OVCAR-3 ovarian
[40] = system: A549 NSCLC
[41] = system: SK-OV-3 ovarian
[42] = system: SF-268 CNS
[43] = system: SK-MEL-28 melanoma
[44] = system: NCI-H460 lung
[45] = system: NCI-H522 lung
[46] = system: T-47D breast
[47] = system: LOX IMVI melanoma
[48] = system: SN12C renal
[49] = system: MDA-N
[50] = system: TK-10 renal
[51] = system: PC-3 prostate
[52] = system: MCF7 breast
[53] = system: 786-0 renal
[54] = system: SNB-75 CNS
[55] = system: M14 melanoma
[56] = system: UACC-257 melanoma
[57] = system: KM12 colon

Measured: TGI

COc1c(OC)c(O)c2c(=O)c(OC)c(-c3ccc4c(c3)OCO4)oc2c1O
> 100 µM: [1] | [2] | [3] | [4] | [5] | [6] | [7] | [8] | [9] | [10] | [11] | [12] | [13] | [14] | [15] | [16] | [17] | [18] | [19] | [20] | [21] | [22] | [23] | [24] | [25] | [26] | [27] | [28] | [29] | [30] | [31] | [32] | [33] | [34] | [35] | [36] | [37] | [38] | [39] | [40] | [41] | [42] | [43] | [44] | [45] | [46] | [47] | [48] | [49] | [50] | [51] | [52] | [53] | [54] | [55] | [56] | [57]
